According to patent US4853467A, “Nitrogen containing derivatives of epipodophyllotoxin glucosides” (Bristol-Myers Company, priority 1987, dated 1989):
≈ marks a conversion by molar mass, not a printed value. Structures can show the parent of a compound that is named as a salt.

How the values were obtained:
HCT/VP35 = test: In vitro cytotoxicity assay, HCT/VP35 etoposide-resistant human colon tumor; format: cell-based; conditions: two values per compound, four-fold serial dilution; for In vitro cytotoxicity IC50, HCT/VP35: HCT/VP35, resistant to etoposide; for IC50: Homo sapiens, HCT/VP35, HCT/VP35, resistant to etoposide
Method: (§1) The in vitro cytotoxicity assay involved growing various mammalian tumor cells, including human tumor cells, on microtitre plates employing established tissue culture methods. The concentration of each compound required to inhibit cell growth by 50% (IC50) was then determined by a four-fold serial dilution technique. The validity of the method has been supported by a report published in the "Proceedings of the American Association for Cancer Research", 1984, 25:1891 (Abst. No. 328). Tumor cells of the following types were employed for each compound tested: B16-F10 murine melanoma; Moser human colon; SW900 human lung and three human colon tumor cell lines namely HCT-116, HCT-VM, and HCT-VP, the latter two being resistant to teniposide (VM) and etoposide (VP), respectively. IC50 values less than 500 μg/ml are a positive indicator of antitumor activity. Table II presents IC50 values of various compounds of the present invention against the aforementioned cell lines.

P388 murine leukemia = test: P388 Leukemia, antitumor activity against murine P388 leukemia; format: in vivo, murine (female CDF1 mice); conditions: i.p. on days 5 and 8; 10^6 P388 cells i.p.; maximum effect over doses; >=125 considered significant; etoposide values in parentheses are positive control in same experiment
Method: Female CDF1 mice were implanted intraperitoneally with a tumor inoculum of 10^6 ascites cells of P388 murine leukemia and treated with various doses of a test compound; four mice were used for each dose level and ten were used as saline-treated control. The compounds were administered by intraperitoneal injection on days 5 and 8 (day 1 being the day of tumor implantation). Antitumor activity was expressed as % T/C which is the ratio of the median survival time (MST) of drug-treated group to the MST of saline-treated control group. A compound showing a % T/C value of 125 or greater is generally considered to have significant antitumor activity in the P388 test. The experiment lasted 31 days at the end of which time the number of survivors was noted. Table I presents the results of the above-described evaluation; only the maximum % T/C and the dose showing the maximum effect are reported.

HCT-116 = test: In vitro cytotoxicity assay, HCT-116 human colon tumor; format: cell-based; conditions: two values per compound, four-fold serial dilution; for In vitro cytotoxicity IC50, HCT-116: HCT-116 human colon; for IC50: Homo sapiens, HCT-116, HCT-116 human colon
Method: as §1

B16-F10 murine melanoma = test: In vitro cytotoxicity assay, B16-F10 murine melanoma; format: cell-based; conditions: two values per compound, four-fold serial dilution; for In vitro cytotoxicity IC50, B-16-F10: B16-F10 murine melanoma; for IC50: Mus musculus, B16-F10, B16-F10 murine melanoma, read-out: In vitro cytotoxicity IC50, B-16-F10
Method: as §1

Moser human colon = test: In vitro cytotoxicity assay, Moser human colon; format: cell-based; conditions: two values per compound, four-fold serial dilution; for IC50: Homo sapiens
Method: as §1

HCT/VM34 = test: In vitro cytotoxicity assay, HCT/VM34 teniposide-resistant human colon tumor; format: cell-based; conditions: HCT/VM34, resistant to teniposide, two values per compound, four-fold serial dilution; for IC50: Homo sapiens
Method: as §1

SW900 human lung = test: In vitro cytotoxicity assay, SW900 human lung; format: cell-based; conditions: two values per compound, four-fold serial dilution; for IC50: Homo sapiens, SW900, SW900 human lung; for In vitro cytotoxicity IC50, SW900: SW900 human lung
Method: as §1

SMILES	In vitro cytotoxicity IC50, HCT/VP35 (HCT/VP35)	IC50 (HCT/VP35)	Max % T/C (ratio of median survival time of drug-treated group to saline-treated control group) (P388 murine leukemia)	In vitro cytotoxicity IC50, HCT-116 (HCT-116)	IC50 (HCT-116)	In vitro cytotoxicity IC50, B-16-F10 (B16-F10 murine melanoma)	IC50 (B16-F10 murine melanoma)	IC50 (Moser human colon)	In vitro cytotoxicity IC50, MOSER (Moser human colon)	In vitro cytotoxicity IC50, HCT/VM34 (HCT/VM34)	IC50 (HCT/VM34)	IC50 (SW900 human lung)	In vitro cytotoxicity IC50, SW900 (SW900 human lung)
COc1ccc(C=Nc2cc([C@@H]3c4cc5c(cc4[C@@H](O[C@@H]4O[C@@H]6CO[C@@H](C)O[C@H]6[C@H](O)[C@H]4O)[C@H]4COC(=O)[C@H]34)OCO5)cc(OC)c2O)cc1 [Example 20, 3'-Desmethoxy-3'-[[(4-methoxy)phenyl]methylene]amino etoposide]	61 µg/mL	35 µg/mL (≈ 50.6 µM)	175%	5.6 µg/mL	9.6 µg/mL (≈ 13.9 µM)	19.8 µg/mL	13.3 µg/mL (≈ 19.2 µM)	–	–	–	–	–	–
COc1cc([C@@H]2c3cc4c(cc3[C@@H](O[C@@H]3O[C@@H]5CO[C@@H](C)O[C@H]5[C@H](O)[C@H]3O)[C@H]3COC(=O)[C@H]23)OCO4)cc2ncoc12 [Example 27, Etoposide benzoxazole derivative]	15.6 µg/mL	26 µg/mL (≈ 44.6 µM)	165%	–	–	4.3 µg/mL	5.3 µg/mL (≈ 9.08 µM)	25 µg/mL (≈ 42.8 µM)	27 µg/mL	10.6 µg/mL	14 µg/mL (≈ 24 µM)	–	–
COc1cc([C@@H]2c3cc4c(cc3[C@@H](O[C@@H]3O[C@@H]5CO[C@@H](C)O[C@H]5[C@H](O)[C@H]3O)[C@H]3COC(=O)[C@H]23)OCO4)cc(N=Cc2cc(OC)c(OC)c(OC)c2)c1O [Example 21, 3'-Desmethoxy-3'-[[(3,4,5-trimethoxy)phenyl]methylene]amino etoposide]	15.6 µg/mL	26 µg/mL (≈ 34.6 µM)	225%	–	–	4.3 µg/mL	5.3 µg/mL (≈ 7.05 µM)	25 µg/mL (≈ 33.3 µM)	27 µg/mL	10.6 µg/mL	14 µg/mL (≈ 18.6 µM)	–	–
COc1cc([C@@H]2c3cc4c(cc3[C@@H](O[C@@H]3O[C@@H]5CO[C@@H](C)O[C@H]5[C@H](O)[C@H]3O)[C@H]3COC(=O)[C@H]23)OCO4)cc(NC(C)=O)c1O [Example 7, 3'-Acetylamino-3'-desmethoxy etoposide]	83 µg/mL	90 µg/mL (≈ 146 µM)	135%	63 µg/mL	60 µg/mL (≈ 97.5 µM)	63 µg/mL	54 µg/mL (≈ 87.7 µM)	–	–	65 µg/mL	63 µg/mL (≈ 102 µM)	–	–
COc1cc([C@@H]2c3cc4c(cc3[C@@H](O[C@@H]3O[C@@H]5CO[C@@H](C)O[C@H]5[C@H](O)[C@H]3O)[C@H]3COC(=O)[C@H]23)OCO4)cc([N+]#N)c1[O-] [Example 25, 3'-Desmethoxy-3'-diazonium etoposide hydroxide inner salt]	102 µg/mL	78 µg/mL	240%	38 µg/mL	24 µg/mL	25 µg/mL	29 µg/mL	–	–	43 µg/mL	38 µg/mL	–	–
CON=C1C=C([C@@H]2c3cc4c(cc3[C@@H](O[C@@H]3O[C@@H]5CO[C@@H](C)O[C@H]5[C@H](O)[C@H]3O)[C@H]3COC(=O)[C@@H]32)OCO4)C=C(OC)C1=O [Example 1, Etoposide-ortho-quinone-3'-O-methyloxime]	–	–	200%	–	–	–	–	–	–	–	–	–	–
COc1cc([C@@H]2c3cc4c(cc3[C@@H](O[C@@H]3O[C@@H]5CO[C@@H](C)O[C@H]5[C@H](O)[C@H]3O)[C@H]3COC(=O)[C@H]23)OCO4)cc(N)c1O [Example 3, 3'-Amino-3'-desmethoxy etoposide]	–	–	228%	–	–	–	–	–	–	–	–	–	–
CC(=O)NC1=CC([C@@H]2c3cc4c(cc3[C@@H](O[C@@H]3O[C@@H]5CO[C@@H](C)O[C@H]5[C@H](O)[C@H]3O)[C@H]3COC(=O)[C@@H]32)OCO4)=CC(=O)C1=O [Example 28, 5'-Desmethoxy-5'-acetylamino etoposide 3',4'-orthoquinone]	70 µg/mL	84 µg/mL (≈ 140 µM)	125%	68 µg/mL	66 µg/mL (≈ 110 µM)	81 µg/mL	72 µg/mL (≈ 120 µM)	87 µg/mL (≈ 145 µM)	71 µg/mL	64 µg/mL	58 µg/mL (≈ 96.7 µM)	–	–
COC1=CC([C@@H]2c3cc4c(cc3[C@@H](O[C@@H]3O[C@@H]5CO[C@@H](C)O[C@H]5[C@H](O)[C@H]3O)[C@H]3COC(=O)[C@@H]32)OCO4)=CC(=NOCc2ccccc2)C1=O [Example 2, Etoposide-ortho-quinone-3'-O-benzyloxime]	–	–	242%	–	–	–	–	–	–	–	–	–	–
COc1cc([C@@H]2c3cc4c(cc3[C@@H](O[C@@H]3O[C@@H]5CO[C@@H](C)O[C@H]5[C@H](O)[C@H]3O)[C@H]3COC(=O)[C@H]23)OCO4)cc(NS(C)(=O)=O)c1O [Example 12, 3'-Desmethoxy-3'-methanesulfonamido etoposide]	132 µg/mL	88 µg/mL (≈ 135 µM)	150%	62 µg/mL	54 µg/mL (≈ 82.9 µM)	54 µg/mL	61 µg/mL (≈ 93.6 µM)	–	–	–	–	> 188 µg/mL	–
COc1cc([C@@H]2c3cc4c(cc3[C@@H](O[C@@H]3O[C@@H]5CO[C@@H](C)O[C@H]5[C@H](O)[C@H]3O)[C@H]3COC(=O)[C@H]23)OCO4)cc(N=Cc2ccco2)c1O [Example 18, 3'-Desmethoxy-3'-[(2-furyl)methylene]amino etoposide]	–	–	200%	18.4 µg/mL	29 µg/mL (≈ 44.5 µM)	15.3 µg/mL	12.5 µg/mL (≈ 19.2 µM)	40 µg/mL (≈ 61.4 µM)	37 µg/mL	–	–	42 µg/mL (≈ 64.5 µM)	40 µg/mL
COc1cc([C@@H]2c3cc4c(cc3[C@@H](O[C@@H]3O[C@@H]5CO[C@@H](C)O[C@H]5[C@H](O)[C@H]3O)[C@H]3COC(=O)[C@H]23)OCO4)cc(NC(=O)NCCCl)c1O [Example 10, 3'-[(2-Chloroethylamino)carbonyl]amino-3'-desmethoxy etoposide]	106 µg/mL	92 µg/mL (≈ 135 µM)	110%	78 µg/mL	71 µg/mL (≈ 105 µM)	87 µg/mL	57 µg/mL (≈ 83.9 µM)	–	–	100 µg/mL	81 µg/mL (≈ 119 µM)	–	–
COc1cc([C@@H]2c3cc4c(cc3[C@@H](O[C@@H]3O[C@@H]5CO[C@@H](C)O[C@H]5[C@H](O)[C@H]3O)[C@H]3COC(=O)[C@H]23)OCO4)cc(N=Cc2ccncc2)c1O [Example 19, 3'-Desmethoxy-3'-[(4-pyridyl)methylene]amino etoposide]	–	–	230%	12.7 µg/mL	13.9 µg/mL (≈ 21 µM)	16.4 µg/mL	16.9 µg/mL (≈ 25.5 µM)	38 µg/mL (≈ 57.3 µM)	32 µg/mL	19.3 µg/mL	21 µg/mL (≈ 31.7 µM)	42 µg/mL (≈ 63.4 µM)	28 µg/mL
